Measurements reported in patent US8557959B2, “Allele and isotope-specific intervention on MHC class II molecules associated with autoimmune diseases by means of peptides” (Merck Serono S.A., priority 2007, dated 2013).
Like-named read-outs stand apart in the source and are kept apart here.

Legend:
[1] = system: 08073 T cell hybridoma co-incubated with HLA-DR2b-transfected L466 cells; test: blocking of MBP 85-99 induced IL-2 secretion by high-affinity ligands for DR2b; format: cell-based, mouse; settings: 1 μg/ml MBP 85-99, 10 μg/ml peptide, 24 hours; FIG. 1
Experimental: L466 cells and 08073 cells, which were transfected with HLA-DR2b, were co-incubated in the presence of 1 μg/ml MBP 85-99 and 10 μg/ml of various HLA-DR2b peptides; “kein Komp.”=no peptide according to the invention in the batch. After 24 hours the supernatant was collected and the amount of IL-2 present in the supernatant was measured in a mouse-specific IL-2-ELISA.
L466 cells and 08073 cells that were transfected with HLA-DR2b were co-incubated in the presence of 1 μg/ml MBP 85-99 and 10 μg/ml of the HuPb28-variants. After 24 hours the supernatant was collected and the amount of IL-2 present in the supernatant was measured using a mouse-specific IL-2-ELISA.
A T cell hybridoma (08073), which expresses the T cell receptor that is specific for MBP 85-99, which is presented by HLA-DR2b, was provided. After stimulation with MBP 85-99, presented by HLA-DR2b-transfected L466 cells, the 08073 cells secreted significant amounts of IL-2. 5×10^4 08073 cells were co-incubated for 24 hours with 5×10^4 HLA-DR2b-transfected L466 cells in RPMI medium (Invitrogen, Pailey, United Kingdom)/2% FCS (PAA, Linz, Austria)/100 U/ml penicillin, 100 μg/ml streptomycin, 2 mM glutamine (all from Invitrogen) in the presence of 1 μg/ml […] with or without high-affinity peptides (10 μg/ml). The amounts of IL-2 that were secreted in the supernatant were detected using a mouse-IL-2-specific ELISA (BD Biosciences Pharmingen, San Diego, Calif., United States of America).

HLA-DR2b molecules = molecular target: T1, HLA-DR2b molecules (Homo sapiens, UniProt P01903+P01911); test: competitive ELISA (dissociation-enhanced lanthanide fluoroimmunoassay) with biotinylated CLIP 97-120 as tracer on purified DR2b molecules; format: binding
T1 construct: made in house; host or cells: L cells co-transfected with HLA-DRA and HLA-DRB1*1501
Excerpt: DR2b molecules were purified from L cells that had been co-transfected with HLA-DRA and HLA-DRB1*1501, by affinity chromatography using the HLA-DR-specific L243 antibody, as described in Weissert et al. (2001), MHC class II-regulated central nervous system autoaggression and T cell responses in peripheral lymphoid tissues are dissociated in myelin oligodendrocyte glycoprotein-induced experimental autoimmune encephalomyelitits, J. Immunol. 166, 7588-7599. The above publication is incorporated into the present application by reference. The binding assays were performed with a competitive ELISA based on a dissociation-enhanced lanthanide fluoroimmunoassay (Wallac, Turku, Finland). For the competitive ELISA, a 50 nM solution of DR2b molecules was incubated for 48 hours at 37° C. with 50 nM biotinylated CLIP 97-120 in the presence of 250 nM acetylated nonapeptide amide sublibrary or with various concentrations of competitor peptides ranging from 1 nM to 100 μM. The IC50 of a peptide was defined as the concentration of peptide that was required for a 50% inhibition of the binding of the tracer peptide. […]

HLA-DR2b-transgenic mice = test: MOG 35-55-induced EAE, co-immunization experiment; format: in vivo, mouse
Experimental: DR2b mice were immunized with the MOG 35-55 peptide in CFA (n=8) or co-immunized with MOG 35-55 and the HuPb11 peptide (SEQ ID No. 17) (n=8) or MOG 35-55 and HuPb28 peptide (SEQ ID No. 9) (n=9). Pertussis toxin (PTX) was administered i.p. on days 0 and 2. The mice were measured daily for EAE and weighed.
The following classifications were used: 0, no disease; 1, weakness or paralysis of the tail; 2, weakness of the hind legs; 3, paralysis of the hind legs; 4, paralysis of the front and hind legs; 5, moribund or death caused by disease.

[2] = acetylated nonapeptide amides, 48 hours at 37° C., 50 nM DR2b, 50 nM biotinylated CLIP 97-120, read-out: IC50 for binding to HLA-DR2b molecules

| Substance | IC50 (HLA-DR2b molecules; [2]) [nM] | IL-2 secretion after stimulation of 08073 cells with MBP 85-99 [1] | further results |
| --- | --- | --- | --- |
| Ac-FILIYSNLF-NH2 [HuPb29, FILIYSNLF] | 2 |  |  |
| Ac-GPPERLEFR-NH2 [HuPb19, GPPERLEFR] | > 100000 | did not show any effect |  |
| Ac-KGESGFRDR-NH2 [HuPb17, KGESGFRDR] |  | did not show any effect | IC50 (HLA-DR2b molecules): > 100000 nM |
| Ac-LILWYSSWL-NH2 [HuPb24, LILWYSSWL] | 2 |  |  |
| Ac-LILYYYYYL-NH2 [HuPb23, LILYYYYYL] |  |  | affinity for HLA-DR2b in words (HLA-DR2b molecules): moderate affinity |
| Ac-LIYWYSSWL-NH2 [HuPb22, LIYWYSSWL] | 2 |  |  |
| Ac-MIYWYSSWL-NH2 [HuPb20, MIYWYSSWL] | 1 |  |  |
| Ac-PYEAQELHE-NH2 [HuPb14, PYEAQELHE] | > 100000 |  |  |
| Ac-WGLPEHLER-NH2 [HuPb11, WGLPEHLER] | > 100000 |  |  |

Continued, in another order:

| IC50 (HLA-DR2b molecules; [2]) [nM] | Substance | IL-2 secretion after stimulation of 08073 cells with MBP 85-99 [1] | further results |
| --- | --- | --- | --- |
| < 1 | Ac-DIYWYSSWP-NH2 [HuPb32, DIYWYSSWP] | significantly reduce IL-2 secretion |  |
| 1 | Ac-LILWYSSWP-NH2 [HuPb26, LILWYSSWP] |  |  |
| < 1 | Ac-LLYWYSSWP-NH2 [HuPb27, LLYWYSSWP] | only a slight reduction in IL-2 secretion |  |
| 1 | Ac-MIDWYSSWP-NH2 [HuPb34, MIDWYSSWP] |  |  |
| < 1 | Ac-MIYWYNSWL-NH2 [HuPb31, MIYWYNSWL] | significantly reduce IL-2 secretion |  |
| < 1 | Ac-MIYWYSNWL-NH2 [HuPb30, MIYWYSNWL] | only a slight reduction in IL-2 secretion |  |
| 1 | Ac-MIYWYSSWD-NH2 [HuPb33, MIYWYSSWD] |  |  |
| 1 | Ac-MIYWYSSWI-NH2 [HuPb21, MIYWYSSWI] |  |  |
| < 1 | Ac-MLIYYSSYL-NH2 [HuPb28, MLIYYSSYL] | significantly reduce IL-2 secretion | clinical EAE symptoms (HLA-DR2b-transgenic mice; co-administration of 200 μg peptide with 300 μg MOG 35-55 in CFA at immunization): reduced the clinical EAE symptoms; EAE sum value (HLA-DR2b-transgenic mice; co-immunized with MOG 35-55 and peptide, n=9, p<0.05, FIG. 3): reduction in the sum value |
